Test results reported in patent US20250235460A1, “COMBINATION THERAPY USING GLUCOSE-DEPENDENT INSULINOTROPIC POLYPEPTIDE RECEPTOR ANTAGONIST COMPOUNDS AND GLP-1 RECEPTOR AGONIST COMPOUNDS” (Pfizer Inc., priority 2024, published 2025).
Structures can show the parent of a compound that is named as a salt.

How the values were obtained:
human GLP-1R [1] = molecular target: human GLP-1R (Homo sapiens, UniProt P43220, L260F); assay: CHO GLP-1R Clone C6 cAMP HTRF agonist assay (Assay 2, low receptor density); type: cell-based; conditions: for EC50: geometric mean; for Emax: CHO GLP-1R clone C6, arithmetic mean, relative to saturating GLP-1 (1 μM)
Sequence of human GLP-1R (Homo sapiens, UniProt P43220, L260F) (P43220 24-463 L260F): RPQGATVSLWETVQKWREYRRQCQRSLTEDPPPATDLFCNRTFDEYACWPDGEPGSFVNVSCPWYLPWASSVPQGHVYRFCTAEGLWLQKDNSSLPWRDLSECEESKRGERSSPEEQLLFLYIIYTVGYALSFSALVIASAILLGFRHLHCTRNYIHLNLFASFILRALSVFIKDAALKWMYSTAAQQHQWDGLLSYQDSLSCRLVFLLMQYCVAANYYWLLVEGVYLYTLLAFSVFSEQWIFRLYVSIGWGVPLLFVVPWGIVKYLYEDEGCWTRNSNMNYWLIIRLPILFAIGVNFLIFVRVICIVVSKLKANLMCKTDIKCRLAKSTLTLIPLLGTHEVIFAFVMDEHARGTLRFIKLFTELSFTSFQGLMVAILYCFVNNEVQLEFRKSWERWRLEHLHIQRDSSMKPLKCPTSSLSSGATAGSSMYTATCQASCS
From the text: In Table 5 and Table 6, assay data are presented to two (2) significant figures as the geometric mean (EC50s) and arithmetic mean (Emax) based on the number of replicates listed (Number). A blank cell means there was no data for that Example or the Emax was not calculated.

human GLP-1R [2] = molecular target: human GLP-1R (Homo sapiens, UniProt P43220, G168S); assay: CHO GLP-1R Clone H6 cAMP HTRF agonist assay (Assay 1, high receptor density); type: cell-based; conditions: for EC50: geometric mean; for Emax: CHO GLP-1R clone H6, arithmetic mean, relative to saturating GLP-1 (1 μM), read-out: Assay 1 Emax (%)
Sequence of human GLP-1R (Homo sapiens, UniProt P43220, G168S) (P43220 24-463 G168S): as the sequence (P43220 24-463 L260F) above, with G145S, F237L counted along it
Summary of the method: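 Replicate runs were pooled. Potencies were averaged geometrically and maximal efficacies arithmetically, then rounded to two significant figures.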

Row | Compound | EC50 (human GLP-1R [1]; CHO GLP-1R clone, low receptor density, cAMP HTRF) | EC50 (human GLP-1R [2]; CHO GLP-1R clone, cAMP HTRF) | EC50 (human GLP-1R [1]; CHO GLP-1R clone C6, cAMP HTRF) | Emax (human GLP-1R [1]) | EC50 (human GLP-1R [2]; CHO GLP-1R clone H6, cAMP HTRF) | Emax (human GLP-1R [2])
1 | COCCn1c(C2CC23CCC(c2cccc4c2OC(C)(c2ccc(Cl)cc2F)O4)CC3)nc2ccc(C(=O)O)cc21 (stereo not drawn) [Compound 29B, 2-{6-[2-(4-chloro-2-fluorophenyl)-2-methyl-1,3-benzodioxol-4-yl]-6-azaspiro[2.5]oct-1-yl}-1-(2-methoxyethyl)-1H-benzimidazole-6-carboxylic acid, DIAST-Z2, trifluoroacetate salt] | > 20000 nM | > 20000 nM |  |  |  | 
2 | O=C(O)c1ccc2nc(CN3CCC(c4cccc(OCc5ccc(Cl)cc5F)n4)CC3)n(C[C@@H]3CCO3)c2c1 [Compound 107B, 2-[(4-{6-[(4-chloro-2-fluorobenzyl)oxy]pyridin-2-yl}piperidin-1-yl)methyl]-1-[(2S)-oxetan-2-ylmethyl]-1H-benzimidazole-6-carboxylic acid] |  |  | 910 nM | 94% | 81 nM | 77%
3 | N#Cc1ccc(COc2cccc(N3CCN(Cc4nc5ccc(C(=O)O)cc5n4C[C@@H]4CCO4)CC3)n2)c(F)c1 [Compound 108B, 2-[(4-{6-[(4-cyano-2-fluorobenzyl)oxy]pyridin-2-yl}piperazin-1-yl)methyl]-1-[(2S)-oxetan-2-ylmethyl]-1H-benzimidazole-6-carboxylic acid] |  |  | 320 nM | 88% | 16 nM | 85%
4 | N#Cc1ccc(COc2cccc(C3CCN(Cc4nc5ccc(C(=O)O)cc5n4C[C@H]4CCO4)CC3)n2)c(F)c1 [Compound 111B, 2-[(4-{6-[(4-cyano-2-fluorobenzyl)oxy]pyridin-2-yl}piperidin-1-yl)methyl]-1-[(2R)-oxetan-2-ylmethyl]-1H-benzimidazole-6-carboxylic acid] |  |  |  | 67% |  | 75%
5 | [2H]C([2H])(Oc1cccc(C2CCN(Cc3nc4ccc(C(=O)O)cc4n3C[C@@H]3CCO3)CC2)n1)c1ccc(C#N)cc1F [Compound 112B, 2-{[4-(6-{[(4-cyano-2-fluorophenyl)(methyl-d2)]oxy}pyridin-2-yl)piperidin-1-yl]methyl}-1-[(2S)-oxetan-2-ylmethyl]-1H-benzimidazole-6-carboxylic acid] |  |  |  | 70% |  | 84%
6 | N#Cc1ccc(COc2nc(C3CCN(Cc4nc5ccc(C(=O)O)cc5n4C[C@@H]4CCO4)CC3)ccc2F)c(F)c1 [Compound 113B, 2-[(4-{6-[(4-cyano-2-fluorobenzyl)oxy]-5-fluoropyridin-2-yl}piperidin-1-yl)methyl]-1-[(2S)-oxetan-2-ylmethyl]-1H-benzimidazole-6-carboxylic acid] |  |  | 45 nM | 82% | 3.9 nM | 82%
7 | N#Cc1ccc(COc2cccc(C3CCN(Cc4nc5ccc(C(=O)O)nc5n4C[C@@H]4CCO4)CC3)n2)c(F)c1 [Compound 114B, 2-[(4-{6-[(4-cyano-2-fluorobenzyl)oxy]pyridin-2-yl}piperidin-1-yl)methyl]-3-[(2S)-oxetan-2-ylmethyl]-3H-imidazo[4,5-b]pyridine-5-carboxylic acid] |  |  | 120 nM | 85% | 7.1 nM | 81%
8 | C[C@H]1CN(c2cccc(OCc3ccc(C#N)cc3F)n2)CCN1Cc1nc2ccc(C(=O)O)cc2n1C[C@@H]1CCO1 [Compound 115B, 2-{[(2S)-4-{6-[(4-cyano-2-fluorobenzyl)oxy]pyridin-2-yl}-2-methylpiperazin-1-yl]methyl}-1-[(2S)-oxetan-2-ylmethyl]-1H-benzimidazole-6-carboxylic acid] |  |  | 17 nM | 120% | 0.95 nM | 92%
9 | O=C(O)c1ccc2nc(CN3CCC(c4cccc(OCc5ccc(Cl)cc5F)n4)CC3)n(C[C@@H]3CCCO3)c2c1 [Compound 116B, 2-[(4-{6-[(4-chloro-2-fluorobenzyl)oxy]pyridin-2-yl}piperidin-1-yl)methyl]-1-[(2S)-tetrahydrofuran-2-ylmethyl]-1H-benzimidazole-6-carboxylic acid] |  |  | 9000 nM | 100% | 930 nM | 86%
10 | O=C(O)c1ccc2nc(CN3CCC(c4cccc(OCc5ccc(F)cc5F)n4)CC3)n(C[C@@H]3CCO3)c2c1 [Compound 117B, 2-[(4-{6-[(2,4-difluorobenzyl)oxy]pyridin-2-yl}piperidin-1-yl)methyl]-1-[(2S)-oxetan-2-ylmethyl]-1H-benzimidazole-6-carboxylic acid] |  |  | 530 nM | 97% | 19 nM | 76%
11 | O=C(O)c1ccc2nc(CN3CCN(c4cccc(OCc5ccc(Cl)cc5F)n4)CC3)n(C[C@@H]3CCO3)c2n1 [Compound 120B, 2-[(4-{6-[(4-chloro-2-fluorobenzyl)oxy]pyridin-2-yl}piperazin-1-yl)methyl]-3-[(2S)-oxetan-2-ylmethyl]-3H-imidazo[4,5-b]pyridine-5-carboxylic acid] |  |  | 1600 nM | 81% | 47 nM | 71%
12 | O=C(O)c1ccc2nc(CN3CCC(c4cccc(OCc5ccc(Cl)cc5F)n4)CC3)n(C[C@@H]3CCO3)c2n1 [Compound 122B, 2-[(4-{6-[(4-chloro-2-fluorobenzyl)oxy]pyridin-2-yl}piperidin-1-yl)methyl]-3-[(2S)-oxetan-2-ylmethyl]-3H-imidazo[4,5-b]pyridine-5-carboxylic acid] |  |  | 14 nM | 82% | 1.5 nM | 86%
13 | N#Cc1ccc(COc2cccc(N3CCN(Cc4nc5ccc(C(=O)O)nc5n4C[C@@H]4CCO4)CC3)n2)c(F)c1 [Compound 123B, 2-[(4-{6-[(4-cyano-2-fluorobenzyl)oxy]pyridin-2-yl}piperazin-1-yl)methyl]-3-[(2S)-oxetan-2-ylmethyl]-3H-imidazo[4,5-b]pyridine-5-carboxylic acid] |  |  | 45 nM | 95% | 2.4 nM | 87%
14 | N#Cc1ccc(COc2cccc(C3CCN(Cc4nc5ccc(C(=O)O)cc5n4C[C@@H]4CCCO4)CC3)n2)c(F)c1 [Compound 124B, 2-[(4-{6-[(4-cyano-2-fluorobenzyl)oxy]pyridin-2-yl}piperidin-1-yl)methyl]-1-[(2S)-tetrahydrofuran-2-ylmethyl]-1H-benzimidazole-6-carboxylic acid] |  |  | 110 nM | 94% | 6.4 nM | 90%
15 | N#Cc1ccc(COc2nc(C3CCN(Cc4nc5ccc(C(=O)O)cc5n4C[C@@H]4CCO4)CC3)ccc2F)cc1 [Compound 127B, 2-[(4-{6-[(4-cyanobenzyl)oxy]-5-fluoropyridin-2-yl}piperidin-1-yl)methyl]-1-[(2S)-oxetan-2-ylmethyl]-1H-benzimidazole-6-carboxylic acid] |  |  | 75 nM | 83% | 4.9 nM | 77%
16 | N#Cc1ccc(COc2cccc(C3CCN(Cc4nc5ccc(C(=O)O)cc5n4C[C@@H]4CCCO4)CC3)n2)cc1 [Compound 131B, 2-[(4-{6-[(4-cyanobenzyl)oxy]pyridin-2-yl}piperidin-1-yl)methyl]-1-[(2S)-tetrahydrofuran-2-ylmethyl]-1H-benzimidazole-6-carboxylic acid] |  |  | 1000 nM | 84% | 45 nM | 65%
17 | N#Cc1ccc(COc2cccc(C3CCN(Cc4nc5ccc(C(=O)O)cc5n4C[C@H]4CCCO4)CC3)n2)cc1 [Compound 132B, 2-[(4-{6-[(4-cyanobenzyl)oxy]pyridin-2-yl}piperidin-1-yl)methyl]-1-[(2R)-tetrahydrofuran-2-ylmethyl]-1H-benzimidazole-6-carboxylic acid] |  |  | 1800 nM | 85% | 70 nM | 80%
18 | C[C@H]1CN(c2ccc(F)c(OCc3ccc(F)cc3F)n2)CCN1Cc1nc2ccc(C(=O)O)cc2n1C[C@@H]1CCO1 [Compound 133B, 2-{[(2S)-4-{6-[(2,4-difluorobenzyl)oxy]-5-fluoropyridin-2-yl}-2-methylpiperazin-1-yl]methyl}-1-[(2S)-oxetan-2-ylmethyl]-1H-benzimidazole-6-carboxylic acid] |  |  | 1400 nM | 47% | 190 nM | 91%
19 | C[C@H]1CN(c2cccc(OCc3ccc(F)cc3F)n2)CCN1Cc1nc2ccc(C(=O)O)cc2n1C[C@@H]1CCO1 [Compound 134B, 2-{[(2S)-4-{6-[(2,4-difluorobenzyl)oxy]pyridin-2-yl}-2-methylpiperazin-1-yl]methyl}-1-[(2S)-oxetan-2-ylmethyl]-1H-benzimidazole-6-carboxylic acid] |  |  | 7700 nM | 100% | 300 nM | 92%
20 | C[C@H]1CN(c2cccc(OCc3ccc(Cl)cc3F)n2)CCN1Cc1nc2ccc(C(=O)O)cc2n1C[C@@H]1CCO1 [Compound 135B, 2-{[(2S)-4-{6-[(4-chloro-2-fluorobenzyl)oxy]pyridin-2-yl}-2-methylpiperazin-1-yl]methyl}-1-[(2S)-oxetan-2-ylmethyl]-1H-benzimidazole-6-carboxylic acid] |  |  | 5600 nM | 86% | 260 nM | 88%
21 | C[C@H]1CN(c2cccc(OCc3ccc(Cl)cc3F)n2)CCN1Cc1nc2ccc(C(=O)O)nc2n1C[C@@H]1CCO1 [Compound 136B, 2-{[(2S)-4-{6-[(4-chloro-2-fluorobenzyl)oxy]pyridin-2-yl}-2-methylpiperazin-1-yl]methyl}-3-[(2S)-oxetan-2-ylmethyl]-3H-imidazo[4,5-b]pyridine-5-carboxylic acid] |  |  | 4100 nM | 110% | 150 nM | 86%
